What was measured:
[1] = system: Hippocampal Cell Line (HT22); experiment: Glutamate-induced oxidative toxicity in hippocampal cell line (HT22): mitochondrial membrane potential by JC-1 fluorescence ratio; assay type: cell-based, mouse; details: 10^-7 M compound; for protection against glutamate-mediated damage to the mitochondria (in words) / JC-1 ratio B (+glutamate 5 mM) / JC-1 ratio A (control conditions): HT-22 cells; for protection against glutamate-mediated damage to the mitochondria (in words): 5 mM glutamate; for JC-1 ratio B (+glutamate 5 mM) / JC-1 ratio A (control conditions): 24h, fluorescence ratio 530/590:480/530; for JC-1 ratio A (control conditions): control conditions (no glutamate); for effect on mitochondrial membrane potential of the control cells (in words): HT-22 control cells without glutamate; for JC-1 ratio B/A (%): ratio of +glutamate 5 mM to control conditions
Procedure: Table 1: Effects of ML Compounds of the Invention on Glutamate-induced Oxidative Toxicity in Hippocampal Cell Line (HT22)
The changes in the mithochondrial membrane potential was assessed using the fluorescent probe 5,5′,6,6′-tetrachloro-1,1′,3,3′-tetraethylbenzimidazolcarbocyanine iodide (JC-1) according to Nuydens et al, 1999, L of Neuroscience; 92, 153-9. Immortalized mouse hipocampal cells (HT-22) were maintained in Dulbecco's modified minimal essential medium (DMEM) supplemented with 10% fetal bovine serum and passaged by trypsinization. Cells (3000 per 96 palte well) were cultured for 24h with DMEM containing 5 mM glutamate and were treated with 10^−7 M of the ML compounds. Cells were then loaded with JC-1 by changing the culture medium to Phosphate buffered saline (PBS) containing 1 g/L glucose and 10 uM JC-1 for 10 mln. at 37° and were washed once. Flouresence was then measured in a plate reader at excitation/emission wavelengths of 480/530 nm and 530/590 nm. The ratio of the fluoresence intensities in the two wavelengths 530/590:480/530 is an indication of the mitochondrial membrane potential. Decrease in this ratio indicates depolarization of the mitochondrial membrane due to damage induced by anoxic or other phathological situations leading to apoptosis of cells.

[2] = system: 125I-Melatonin Binding in Membranes of Hamster Brain; experiment: 125I-Melatonin binding in membranes of hamster brain (competition); details: for inhibition of the specific 125I-melatonin binding: 10^-6M; for % bound at competitor concentration 10-6M / 125I-melatonin bound at competitor concentration 10-6M: competitor 10^-6M; for % bound at competitor concentration 10-6M / % bound at competitor concentration 10-7M: relative to competitor concentration 0; for 125I-melatonin bound at competitor concentration 10-6M / 125I-melatonin bound at competitor concentration 10-7M: 125I-melatonin 250 pM, 37° C., 60 min, radioactivity, unit not given; for % bound at competitor concentration 10-7M / 125I-melatonin bound at competitor concentration 10-7M: competitor 10^-7M
Procedure: ^125I-Melatonin Binding in Membranes of Hamster Brain
2 whole hamster brains were homogenized with Teflon-glass homogenizer in 10 vol/g tissue of ice cold Tris-HCl buffer (50 mmol/L Tris, 5 mmol/L CaCl2, pH=7.4) and spun at 10,000 g for 10 min. the supernatant were spun at 100,000 g for two hours to yield a crude synaptosomal pellet (P2).
Aliquots of suspended P2 (20 ul) were incubated at 37° C. with ^125I-melatonin (250 pM) for 60 mln. in Tris-Hcl buffer in the absence or presence of 1 nM-100 μM test-substances (ML compounds and melatonin). The binding reaction was terminated by the addition of 4 ml ice cold Tris buffer. Membranes were then collected by vacuum filtration using GF/C glass fiber filters and washed with 3×4 ml ice-cold buffer. The filters containing the bound ^125I-melatonin were assayed for the amount of radioactivity in a γ counter. […] ML-29, ML-30 and ML-31 (10^−6M) inhibited (≧20%) the specific ^125I-melatonin binding. ML-27, ML-28 and ML-23 reduced the specific ^125I-melatonin binding to a lesser extent (˜13%).

Compound | protection against glutamate-mediated damage to the mitochondria (in words) [1] | JC-1 ratio B (+glutamate 5 mM) [1] | JC-1 ratio A (control conditions) [1] | effect on mitochondrial membrane potential of the control cells (in words) [1] | JC-1 ratio B/A (%) [1] | inhibition of the specific 125I-melatonin binding [2] | % bound at competitor concentration 10-6M [2] | 125I-melatonin bound at competitor concentration 10-6M [2] | % bound at competitor concentration 10-7M [2] | 125I-melatonin bound at competitor concentration 10-7M [2]
COc1ccc2[nH]cc(CCNc3ccc([N+](=O)[O-])cc3[N+](=O)[O-])c2c1 [ML-23, N-(2,4-dinitrophenyl)-5-methoxytryptamine, reference compound] | significantly protected | 1.97 | 2.19 | did not decrease | 90% | ~13% | 87% | 403 | 94% | 435
O=[N+]([O-])c1ccc(NCCc2c[nH]c3ccccc23)c([N+](=O)[O-])c1 [ML-25, N-(2,4-dinitrophenyl)tryptamine] | significantly protected | 2.01 | 2.21 | did not decrease | 91% | – | 91% | 390 | 92% | 396
CC(=O)Nc1cc(NCCc2c[nH]c3ccccc23)c([N+](=O)[O-])cc1[N+](=O)[O-] [ML-26, 2,4-dinitro-5-tryptylaminoacetanilide] | significantly protected | 2.11 | 2.16 | did not decrease | 98% | – | 99% | 411 | 104% | 435
Nc1cc(NCCc2c[nH]c3ccccc23)c([N+](=O)[O-])cc1[N+](=O)[O-] [ML-27, N-(2,4-dinitro-5-aminophenyl)tryptamine] | significantly protected | 1.83 | 1.80 | decreased | 102% | ~13% | 87% | 426 | 92% | 448
Cc1ccc2[nH]cc(CCNc3ccc([N+](=O)[O-])cc3[N+](=O)[O-])c2c1 [ML-28, N-(2,4-dinitrophenyl)-5-methyltryptamine] | did not protect | 2.28 | 2.77 | elevated | 82% | ~13% | 87% | 365 | 91% | 381
CC(=O)Nc1cc(NCCc2c[nH]c3ccc(C)cc23)c([N+](=O)[O-])cc1[N+](=O)[O-] [ML-29, 2,4-dinitro-5-(5′-methyltryptyl)aminoacetanilide] | without providing protection | 1.79 | 2.28 | decreased | 78% | – | 80% | 358 | 90% | 404
COc1ccc2[nH]cc(CCNc3cc(NC(C)=O)c([N+](=O)[O-])cc3[N+](=O)[O-])c2c1 [ML-30, 2,4-dinitro-5-(5′-methoxytryptyl)aminoacetanilide] | significantly protected | 2.13 | 1.83 | decreased | 116% | – | 80% | 409 | 96% | 488
Cc1ccc2[nH]cc(CCNc3cc(N)c([N+](=O)[O-])cc3[N+](=O)[O-])c2c1 [ML-31, N-(2,4-dinitro-5-aminophenyl)-5′-methyltryptamine] | without providing protection | 1.57 | 1.93 | decreased | 81% | – | 72% | 334 | 94% | 438
COc1ccc2[nH]cc(CCNc3cc(N)c([N+](=O)[O-])cc3[N+](=O)[O-])c2c1 [ML-32, N-(2,4-dinitro-5-aminophenyl)-5′-methoxytryptamine] | without providing protection | 1.76 | 2.15 | decreased | 82% | – | 93% | 419 | 90% | 408
COc1ccc2[nH]cc(CCNC(C)=O)c2c1 [Melatonin, reference compound] | significantly protected | 2.44 | 2.48 | – | 98% | 20% | 79% | 335 | 89% | 377

From US6780884B2, “Derivating of tryptamine and analogous compounds and pharmaceutical formulations containing them” (Neurim Pharmaceuticals (1991) Ltd., priority 2000, dated 2004)
